Results as given in paper PMC9653733, “Characterization of a Potent, Selective, and Safe Inhibitor, Ac15(Az8)2, in Reversing Multidrug Resistance Mediated by Breast Cancer Resistance Protein (BCRP/ABCG2)” (International Journal of Molecular Sciences, 2022).
Several values for one entry are separate records, joined by “and”; a condition that tells them apart may be missing. Equal values may be shown once. Read-outs that look alike come from different tables or passages of the source.

Legend:
BCRP (S1M180 cells) = molecular target: T1, BCRP (S1M180 cells) (Homo sapiens, UniProt Q9UNQ0, R482G); test: Cell proliferation (MTS) assay: reversal of BCRP-mediated topotecan/DOX resistance in S1M180; type: cell-based
T1 construct: endogenous in cells; host or cells: S1M180 (human colon carcinoma, mitoxantrone-selected)
T1 sequence (Q9UNQ0 1-655 R482G): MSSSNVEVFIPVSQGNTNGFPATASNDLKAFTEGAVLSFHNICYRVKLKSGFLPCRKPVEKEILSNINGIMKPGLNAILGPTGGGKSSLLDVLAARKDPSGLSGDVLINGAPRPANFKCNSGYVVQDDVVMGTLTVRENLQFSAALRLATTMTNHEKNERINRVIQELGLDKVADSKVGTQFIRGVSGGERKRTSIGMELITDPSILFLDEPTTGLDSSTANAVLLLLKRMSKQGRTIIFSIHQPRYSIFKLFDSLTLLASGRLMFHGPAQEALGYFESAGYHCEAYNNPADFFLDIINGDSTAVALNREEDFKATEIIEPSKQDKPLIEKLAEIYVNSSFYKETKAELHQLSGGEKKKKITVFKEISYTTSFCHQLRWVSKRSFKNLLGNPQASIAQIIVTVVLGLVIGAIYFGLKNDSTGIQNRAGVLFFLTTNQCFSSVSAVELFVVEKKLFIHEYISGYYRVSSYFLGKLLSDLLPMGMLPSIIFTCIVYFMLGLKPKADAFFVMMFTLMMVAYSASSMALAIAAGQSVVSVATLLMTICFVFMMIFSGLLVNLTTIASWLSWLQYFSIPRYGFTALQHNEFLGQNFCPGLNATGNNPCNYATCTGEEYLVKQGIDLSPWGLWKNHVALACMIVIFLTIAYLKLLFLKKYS
Protocol: In total, 6500 cells of S1M180 or MCF7-MX100 were incubated with various doses of topotecan or DOX and modulators. The final volume in each well of 96-well plates was 200 µL. The plates were then incubated for 5 days at 37 °C. The CellTiter 96 AQueous Assay (Promega) was used to measure cell proliferation. According to the manufacturer’s instructions, MTS (2 mg/mL) and PMS (0.92 mg/mL) were mixed in a ratio of 20:1. An aliquot (10 μL) of the freshly prepared MTS/PMS mixture was added into each well, and the plate was incubated for 2 h at 37 °C. Optical absorbance at 490 nm was then recorded with microplate absorbance reader (Bio-Rad). IC50 values were calculated from the dose-response curves of MTS assays (Prism 4.0).

BCRP (MCF7-MX100 cells) = settings: concentration reducing IC50 of anticancer drug by half; mean ± S.D.; ref [42]; read-out: EC50 needed for reversing BCRP-mediated topotecan resistance, MCF7-MX100; cited from earlier work
S1 cells = test: Drug accumulation assay in S1; type: cell-based, human; settings: non-BCRP overexpressing S1 cells; 100 nM or 1000 nM
Protocol: Figure 2 Effect of Ac15(Az8)2 on intracellular accumulation of BCRP-substrates in S1 and S1M180 cells. Cells were pre-treated with 0.1% DMSO, 100 nM, or 1000 nM Ac15(Az8)2 and then incubated with BCRP substrates. (A) Topotecan accumulation. (B) DOX accumulation. The intracellular level of drug after treatment was normalized to that of S1 cells after incubating with 0.1% DMSO. Student unpaired two-tailed t-test was conducted as indicated (** p < 0.01, *** p < 0.001). (C) To measure DOX efflux, S1M180 cells were pre-incubated with medium containing 20 μM DOX for 1 h at 37 °C. Cells were then washed and further incubated with or without 1 µM of Ac15(Az8)2. At 0, 5, 10, 30, 60, 120, and 180 min, the cells were harvested to measure the intracellular DOX level. (D) To determine intracellular Ac15(Az8)2 concentration, 1 × 10^7 cells were incubated with 1 µM of Ac15(Az8)2 at 37 °C for 2 h. Cells were then washed with ice-cold PBS. […]
Briefly, 1 × 10^6 cells of S1 and S1M180 cells were pre-incubated with 100 nM or 1000 nM Ac15(Az8)2 for 2 h and followed by 50 µM of topotecan or 20 µM of DOX for 1-h incubation. […] The fluorescence level of DOX was determined by a fluorescence microplate reader (BMG Technologies) using excitation and an emission wavelength pair of 460 nm and 610 nm.

BCRP-ATPase = molecular target: T2, BCRP-ATPase (Homo sapiens, UniProt Q9UNQ0, R482G); test: Vanadate-sensitive BCRP-ATPase activity (S1M180 microsome fraction); type: biochemical; settings: 2.5 mM ATP, 1 h
T2 construct: endogenous in cells; host or cells: S1M180 (human colon carcinoma, mitoxantrone-selected)
T2 sequence (Q9UNQ0 1-655 R482G): T1 sequence (Q9UNQ0 1-655 R482G)
Protocol: Ouabain (Na^+/K^+-ATPase inhibitor) and sodium azide (F-type ATPase inhibitor) were added to S1M180 microsome fraction to inhibit non-ABC transporter ATPase activities. Sodium orthovanadate inhibits ABC transporter ATPase activity and is used to calculate vanadate-ensitive activity by subtraction from the total ATPase activity (without sodium orthovanadate). […] After reaction was stopped, inorganic phosphate level was determined using colorimetry method. The percentages of vanadate-sensitive BCRP-ATPase activity were shown as mean ± S.D.
The membrane fraction of S1M180 cells was prepared as previously reported [48]. […] The absorbance of 655 nm was measured by CLARIOstar® microplate reader (BMG). […]

BCRP = molecular target: T3, BCRP (Homo sapiens, UniProt Q9UNQ0, R482G); test: Lineweaver-Burk and Dixon plots of DOX retention in S1M180; type: cell-based; settings: for Ki: S1M180, DOX retention
T3 construct: endogenous in cells; host or cells: S1M180 (human colon carcinoma, mitoxantrone-selected)
T3 sequence (Q9UNQ0 1-655 R482G): T1 sequence (Q9UNQ0 1-655 R482G)
Protocol: We investigated the biochemical mechanism by which Ac15(Az8)2 inhibits BCRP. S1M180 cells were incubated with DOX and Ac15(Az8)2 at different concentrations. DOX accumulation was measured and analyzed by Lineweaver–Burk plot. […] Moreover, it is implied that DOX and Ac15(Az8)2 are not binding to the same site on BCRP. The apparent inhibition constant (Ki) can be calculated by either the Lineweaver–Burk plot (inset of Figure 5A) or the Dixon plot (Figure 5B).
Figure 5 Lineweaver–Burk and Dixon plot for Ac15(Az8)2 and DOX. S1M180 cells were incubated with different concentrations of Ac15(Az8)2 and DOX. The cells were pre-treated with Ac15(Az8)2 for 2 h and then incubated with DOX for 1 h at 37 °C. After incubation, the cells were washed with ice-cold PBS, and the intracellular DOX level was measured. (A) In Lineweaver–Burk plot, the reciprocal of DOX retention rate (V, μM/min/500,000 cells) is plotted against reciprocal of DOX concentration used. Six lines of Ac15(Az8)2 pass through the same intercepts at the x-axis, which is Km for the DOX. […] (B) In Dixon plot, reciprocal of DOX retention rate (1/V) was plotted against concentration of Ac15(Az8)2.

COC(=O)c1cccc(COc2c(-c3ccc(OCCOCCn4cc(CN(Cc5ccccc5)Cc5cn(CCOCCOc6ccc(-c7oc8ccccc8c(=O)c7OCc7cccc(C(=O)OC)c7)cc6)nn5)nn4)cc3)oc3ccccc3c2=O)c1 [Ac15(Az8)2]
EC50 (BCRP (S1M180 cells); HEK293/R2, MCF7-MX100 and S1M180, summary of Table 2, read-out: EC50 for reversing topotecan and DOX resistance in three BCRP-overexpressed cell lines (range)): 3 to 72 nM
EC50 (BCRP (S1M180 cells); concentration reducing IC50 of anticancer drug by half, mean ± S.D., n = 3–4, read-out: EC50 needed for reversing BCRP-mediated DOX resistance, S1M180): 56 nM and 56.1 nM
EC50 (BCRP (S1M180 cells); concentration reducing IC50 of anticancer drug by half, mean ± S.D., n = 3–4, read-out: EC50 needed for reversing BCRP-mediated topotecan resistance, S1M180): 72 ± 12 nM
EC50 (BCRP (S1M180 cells); range over DOX and topotecan resistance of Table 2, read-out: EC50 for reversing resistance in S1M180 (range)): 56 to 72 nM
EC50 (BCRP (MCF7-MX100 cells)): 3 nM and 3.3 nM
Effect on DOX accumulation in S1 (S1 cells): did not affect
Effect on topotecan accumulation in S1 (S1 cells): did not affect
IC50 (BCRP-ATPase): 7.5 nM
Ki (BCRP; Lineweaver–Burk and Dixon, read-out: Apparent inhibition constant (Ki), range of both plots): 230 to 295 nM
Ki (BCRP; read-out: Ki, Dixon plot): 230 nM
Ki (BCRP; slope of double reciprocal plots vs concentration, read-out: Apparent Ki, Lineweaver–Burk plot): 295 nM
Relationship with DOX in binding to BCRP (BCRP; did not affect Km but reduced Vmax): non-competitive
